pIC50: −log10 of the molar value.
Experiments:
[1] = target: Fibroblast growth factor receptor 3 (Homo sapiens) (UniProt P22607); details: Compound concentration 20.0 uM, Protein concentration 2.0 uM, Result type QC Liability
Description: Thermal Shift Assay. Domain: start/stop: P449-E759

[2] = target: T1, Peripheral plasma membrane protein CASK (Homo sapiens) (UniProt O14936); experiment: (§1) Cellular target engagement assay with: CASK; set-up: cell line HEK293T; details: HEK-293T, NanoBRET Ttracer Tracer K5
T1 sequence (whole entry): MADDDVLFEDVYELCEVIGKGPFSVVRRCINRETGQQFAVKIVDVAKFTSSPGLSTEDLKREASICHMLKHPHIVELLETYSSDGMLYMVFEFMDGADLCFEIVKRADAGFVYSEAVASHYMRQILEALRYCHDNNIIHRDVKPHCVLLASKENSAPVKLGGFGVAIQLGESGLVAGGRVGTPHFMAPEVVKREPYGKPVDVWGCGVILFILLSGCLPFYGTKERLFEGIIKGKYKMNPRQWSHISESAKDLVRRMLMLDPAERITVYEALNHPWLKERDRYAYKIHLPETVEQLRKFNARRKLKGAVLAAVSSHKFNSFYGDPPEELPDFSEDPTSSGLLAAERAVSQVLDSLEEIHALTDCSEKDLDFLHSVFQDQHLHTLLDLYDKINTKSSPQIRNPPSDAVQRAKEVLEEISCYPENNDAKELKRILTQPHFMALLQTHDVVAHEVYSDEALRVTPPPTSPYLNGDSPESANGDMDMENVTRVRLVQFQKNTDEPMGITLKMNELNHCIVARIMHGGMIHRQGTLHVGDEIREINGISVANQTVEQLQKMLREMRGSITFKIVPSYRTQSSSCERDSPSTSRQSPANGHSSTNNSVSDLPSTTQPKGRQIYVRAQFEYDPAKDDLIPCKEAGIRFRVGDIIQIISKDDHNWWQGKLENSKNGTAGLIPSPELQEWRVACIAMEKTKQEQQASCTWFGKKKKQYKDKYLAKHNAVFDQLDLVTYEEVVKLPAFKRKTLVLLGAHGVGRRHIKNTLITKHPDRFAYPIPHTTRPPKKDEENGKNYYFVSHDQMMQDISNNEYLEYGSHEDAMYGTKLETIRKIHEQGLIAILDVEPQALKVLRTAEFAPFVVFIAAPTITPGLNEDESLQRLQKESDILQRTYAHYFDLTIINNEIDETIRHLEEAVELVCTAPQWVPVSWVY

[3] = target: T2, Peripheral plasma membrane protein CASK (Homo sapiens, UniProt O14936); experiment: as §1; set-up: species or system HEK-293T; cell line HEK293T
T2 sequence (O14936 whole entry): T1 sequence (whole entry)

Peregrin (Homo sapiens) [4] = target: T3, Peregrin (Homo sapiens) (UniProt P55201); details: Compound concentration 20.0 uM, Protein concentration 2.0 uM, Result type QC Liability
T3 sequence (whole entry): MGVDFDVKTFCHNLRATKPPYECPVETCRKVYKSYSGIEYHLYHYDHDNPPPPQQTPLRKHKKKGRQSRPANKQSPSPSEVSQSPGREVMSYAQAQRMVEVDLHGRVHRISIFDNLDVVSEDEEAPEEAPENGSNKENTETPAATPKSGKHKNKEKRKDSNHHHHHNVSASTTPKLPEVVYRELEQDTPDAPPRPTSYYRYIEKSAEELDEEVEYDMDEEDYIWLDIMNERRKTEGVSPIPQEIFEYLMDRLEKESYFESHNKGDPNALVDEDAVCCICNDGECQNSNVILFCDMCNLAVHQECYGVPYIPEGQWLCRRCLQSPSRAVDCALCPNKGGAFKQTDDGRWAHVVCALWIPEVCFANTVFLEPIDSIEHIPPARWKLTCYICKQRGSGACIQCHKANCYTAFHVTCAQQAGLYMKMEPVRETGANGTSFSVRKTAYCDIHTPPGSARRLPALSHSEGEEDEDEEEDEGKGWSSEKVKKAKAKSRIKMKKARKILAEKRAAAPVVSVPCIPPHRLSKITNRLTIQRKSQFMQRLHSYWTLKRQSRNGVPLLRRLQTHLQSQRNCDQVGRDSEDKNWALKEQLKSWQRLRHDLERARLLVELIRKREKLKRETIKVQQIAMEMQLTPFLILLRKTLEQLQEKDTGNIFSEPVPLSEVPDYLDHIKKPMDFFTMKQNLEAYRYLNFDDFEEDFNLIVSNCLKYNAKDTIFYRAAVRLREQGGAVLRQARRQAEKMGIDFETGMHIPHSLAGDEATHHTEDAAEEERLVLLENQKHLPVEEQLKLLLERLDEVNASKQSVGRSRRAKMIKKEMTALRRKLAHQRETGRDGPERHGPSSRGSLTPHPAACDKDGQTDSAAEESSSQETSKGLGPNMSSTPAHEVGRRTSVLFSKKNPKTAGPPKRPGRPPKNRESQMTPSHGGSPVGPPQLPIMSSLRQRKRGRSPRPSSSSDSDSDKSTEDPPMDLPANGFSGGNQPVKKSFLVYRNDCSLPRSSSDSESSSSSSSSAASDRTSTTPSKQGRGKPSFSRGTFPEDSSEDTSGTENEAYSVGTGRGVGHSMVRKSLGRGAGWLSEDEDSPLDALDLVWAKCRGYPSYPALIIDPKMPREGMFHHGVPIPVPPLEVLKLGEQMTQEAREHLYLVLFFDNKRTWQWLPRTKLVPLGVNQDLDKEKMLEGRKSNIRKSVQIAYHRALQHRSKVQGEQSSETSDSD

[5] = target: Mitogen-activated protein kinase 14 (Homo sapiens) (UniProt Q16539); experiment: Cellular target engagement assay with: MAPK14; set-up: cell line HEK293T; details: HEK-293T, NanoBRET Ttracer Tracer K10
Sequence of Mitogen-activated protein kinase 14 (Homo sapiens) (Q16539 whole entry, the tested form may be a part): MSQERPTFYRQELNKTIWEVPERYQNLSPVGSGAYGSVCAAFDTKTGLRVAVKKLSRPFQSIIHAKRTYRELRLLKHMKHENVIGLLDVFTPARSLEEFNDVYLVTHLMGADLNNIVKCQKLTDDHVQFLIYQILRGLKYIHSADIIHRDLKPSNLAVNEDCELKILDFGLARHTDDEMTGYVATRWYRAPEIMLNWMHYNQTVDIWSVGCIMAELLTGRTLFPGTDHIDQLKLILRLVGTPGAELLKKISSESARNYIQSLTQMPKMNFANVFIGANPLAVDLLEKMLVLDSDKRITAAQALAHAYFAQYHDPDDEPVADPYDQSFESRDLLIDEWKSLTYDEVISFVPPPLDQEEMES

[6] = target: Epithelial discoidin domain-containing receptor 1 (Homo sapiens) (UniProt Q08345); experiment: Cellular target engagement assay with: DDR1; set-up: cell line HEK293T; details: HEK-293T, NanoBRET Ttracer Tracer K4
Sequence of Epithelial discoidin domain-containing receptor 1 (Homo sapiens) (Q08345 whole entry, the tested form may be a part): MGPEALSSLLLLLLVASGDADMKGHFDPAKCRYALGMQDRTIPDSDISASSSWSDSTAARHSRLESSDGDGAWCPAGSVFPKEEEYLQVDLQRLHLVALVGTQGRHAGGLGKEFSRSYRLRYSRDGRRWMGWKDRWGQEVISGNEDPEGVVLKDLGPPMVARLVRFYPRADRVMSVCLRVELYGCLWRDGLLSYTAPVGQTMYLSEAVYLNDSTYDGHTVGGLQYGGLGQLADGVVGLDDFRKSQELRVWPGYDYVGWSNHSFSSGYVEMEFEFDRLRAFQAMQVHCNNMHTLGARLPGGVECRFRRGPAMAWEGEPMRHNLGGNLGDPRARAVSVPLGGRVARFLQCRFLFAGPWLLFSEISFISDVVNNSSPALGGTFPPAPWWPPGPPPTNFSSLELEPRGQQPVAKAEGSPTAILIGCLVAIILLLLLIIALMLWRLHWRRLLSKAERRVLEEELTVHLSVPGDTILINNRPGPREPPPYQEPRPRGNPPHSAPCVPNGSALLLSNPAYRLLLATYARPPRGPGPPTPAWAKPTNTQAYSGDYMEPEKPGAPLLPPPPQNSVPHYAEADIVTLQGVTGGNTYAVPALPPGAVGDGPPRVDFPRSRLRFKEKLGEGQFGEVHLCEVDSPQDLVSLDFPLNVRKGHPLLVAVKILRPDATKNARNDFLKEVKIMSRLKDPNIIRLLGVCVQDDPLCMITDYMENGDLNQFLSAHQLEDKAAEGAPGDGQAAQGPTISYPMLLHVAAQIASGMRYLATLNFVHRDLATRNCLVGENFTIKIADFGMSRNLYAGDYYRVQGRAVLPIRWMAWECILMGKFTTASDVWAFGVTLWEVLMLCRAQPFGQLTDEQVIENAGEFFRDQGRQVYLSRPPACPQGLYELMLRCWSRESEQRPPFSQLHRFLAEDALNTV

[7] = target: Mitogen-activated protein kinase 11 (Homo sapiens) (UniProt Q15759); experiment: Cellular target engagement assay with: MAPK11; set-up: cell line HEK293T; details: HEK-293T, NanoBRET Ttracer Tracer K10
Sequence of Mitogen-activated protein kinase 11 (Homo sapiens) (Q15759 whole entry, the tested form may be a part): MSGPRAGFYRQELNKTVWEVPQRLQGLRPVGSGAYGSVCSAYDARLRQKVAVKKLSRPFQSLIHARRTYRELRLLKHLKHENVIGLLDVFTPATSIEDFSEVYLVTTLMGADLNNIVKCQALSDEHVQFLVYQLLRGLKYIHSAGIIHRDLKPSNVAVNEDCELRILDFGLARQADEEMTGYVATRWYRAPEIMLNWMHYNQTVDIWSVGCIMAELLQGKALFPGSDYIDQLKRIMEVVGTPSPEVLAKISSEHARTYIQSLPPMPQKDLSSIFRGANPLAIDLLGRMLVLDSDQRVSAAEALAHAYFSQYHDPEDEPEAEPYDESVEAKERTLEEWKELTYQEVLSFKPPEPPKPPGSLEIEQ

[8] = target: T4, Discoidin domain-containing receptor 2 (Homo sapiens) (UniProt Q16832); experiment: Cellular target engagement assay with: DDR2; set-up: cell line HEK293T; details: HEK-293T, NanoBRET Ttracer Tracer K4
T4 sequence (whole entry): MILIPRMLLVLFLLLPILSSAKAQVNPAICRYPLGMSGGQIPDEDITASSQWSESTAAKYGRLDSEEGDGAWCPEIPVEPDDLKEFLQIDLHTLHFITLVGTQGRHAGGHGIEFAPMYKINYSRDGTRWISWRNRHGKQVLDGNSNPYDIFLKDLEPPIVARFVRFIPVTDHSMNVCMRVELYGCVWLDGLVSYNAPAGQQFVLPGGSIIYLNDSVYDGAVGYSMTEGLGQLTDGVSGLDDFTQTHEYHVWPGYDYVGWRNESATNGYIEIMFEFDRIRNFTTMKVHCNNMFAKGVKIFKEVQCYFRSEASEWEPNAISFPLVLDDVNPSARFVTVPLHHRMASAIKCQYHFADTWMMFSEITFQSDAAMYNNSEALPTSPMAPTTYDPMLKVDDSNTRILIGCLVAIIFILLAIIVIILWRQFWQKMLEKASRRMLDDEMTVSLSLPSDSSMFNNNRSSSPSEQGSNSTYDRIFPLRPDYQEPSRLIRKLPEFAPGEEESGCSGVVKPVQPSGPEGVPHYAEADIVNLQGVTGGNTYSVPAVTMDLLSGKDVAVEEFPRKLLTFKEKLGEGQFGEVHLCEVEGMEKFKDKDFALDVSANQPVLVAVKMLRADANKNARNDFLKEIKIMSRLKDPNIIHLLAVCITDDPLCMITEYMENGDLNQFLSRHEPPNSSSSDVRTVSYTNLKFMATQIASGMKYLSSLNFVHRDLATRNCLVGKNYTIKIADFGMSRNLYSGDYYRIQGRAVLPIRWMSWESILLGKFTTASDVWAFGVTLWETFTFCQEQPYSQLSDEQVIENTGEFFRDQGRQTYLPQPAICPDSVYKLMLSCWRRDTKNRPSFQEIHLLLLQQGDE

[9] = target: SRSF protein kinase 2 (Homo sapiens) (UniProt P78362); details: HEK-293T, NanoBRET Ttracer MW375
Sequence of SRSF protein kinase 2 (Homo sapiens) (P78362 whole entry, looked up): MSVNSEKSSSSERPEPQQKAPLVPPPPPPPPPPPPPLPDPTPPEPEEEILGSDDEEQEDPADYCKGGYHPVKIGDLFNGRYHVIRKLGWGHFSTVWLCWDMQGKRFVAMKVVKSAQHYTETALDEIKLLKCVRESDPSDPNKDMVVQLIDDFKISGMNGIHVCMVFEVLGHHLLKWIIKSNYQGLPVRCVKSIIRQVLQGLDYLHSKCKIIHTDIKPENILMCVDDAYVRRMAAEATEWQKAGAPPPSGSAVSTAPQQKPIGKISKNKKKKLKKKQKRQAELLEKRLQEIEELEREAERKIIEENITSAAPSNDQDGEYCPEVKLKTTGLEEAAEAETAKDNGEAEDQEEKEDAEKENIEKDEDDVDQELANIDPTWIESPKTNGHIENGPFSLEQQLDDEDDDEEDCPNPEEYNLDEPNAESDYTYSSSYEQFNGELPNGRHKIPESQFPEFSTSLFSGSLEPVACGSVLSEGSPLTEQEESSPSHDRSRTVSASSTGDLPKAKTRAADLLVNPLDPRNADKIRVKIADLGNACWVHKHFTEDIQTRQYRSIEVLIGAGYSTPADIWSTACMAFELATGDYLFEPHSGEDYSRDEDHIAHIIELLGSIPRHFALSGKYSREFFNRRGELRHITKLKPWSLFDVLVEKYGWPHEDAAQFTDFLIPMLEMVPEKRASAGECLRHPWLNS
Description: Cellular target engagement assay with: SRPK2

Peregrin (Homo sapiens) [10] = target: T3, Peregrin (Homo sapiens); details: Compound concentration 20.0 uM, Protein concentration 2.0 uM, Result type QC Liability; remark: listed apart in the source
[11] = target: SRSF protein kinase 1 (Homo sapiens) (UniProt Q96SB4); details: HEK-293T, NanoBRET Ttracer MW375
Sequence of SRSF protein kinase 1 (Homo sapiens) (Q96SB4 whole entry): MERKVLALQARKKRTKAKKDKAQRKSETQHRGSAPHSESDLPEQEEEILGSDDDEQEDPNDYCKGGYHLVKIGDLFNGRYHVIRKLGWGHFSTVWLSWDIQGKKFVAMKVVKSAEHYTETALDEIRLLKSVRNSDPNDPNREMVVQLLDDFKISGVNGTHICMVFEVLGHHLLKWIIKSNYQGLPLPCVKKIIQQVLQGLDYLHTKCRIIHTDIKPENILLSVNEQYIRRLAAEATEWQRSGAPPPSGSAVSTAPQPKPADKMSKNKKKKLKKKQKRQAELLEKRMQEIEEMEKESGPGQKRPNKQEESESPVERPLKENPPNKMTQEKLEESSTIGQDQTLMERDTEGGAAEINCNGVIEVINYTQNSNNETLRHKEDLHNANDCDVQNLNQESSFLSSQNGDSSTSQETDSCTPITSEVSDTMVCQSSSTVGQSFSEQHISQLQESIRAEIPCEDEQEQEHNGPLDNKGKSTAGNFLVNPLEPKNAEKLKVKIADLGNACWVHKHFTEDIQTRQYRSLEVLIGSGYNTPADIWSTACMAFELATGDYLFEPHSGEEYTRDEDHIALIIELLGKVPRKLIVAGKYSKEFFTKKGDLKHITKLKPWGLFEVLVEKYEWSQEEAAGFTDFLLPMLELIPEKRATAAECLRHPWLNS
Description: Cellular target engagement assay with: SRPK1

Sequence of Fibroblast growth factor receptor 3 (Homo sapiens) (P22607 23-806 limits assumed): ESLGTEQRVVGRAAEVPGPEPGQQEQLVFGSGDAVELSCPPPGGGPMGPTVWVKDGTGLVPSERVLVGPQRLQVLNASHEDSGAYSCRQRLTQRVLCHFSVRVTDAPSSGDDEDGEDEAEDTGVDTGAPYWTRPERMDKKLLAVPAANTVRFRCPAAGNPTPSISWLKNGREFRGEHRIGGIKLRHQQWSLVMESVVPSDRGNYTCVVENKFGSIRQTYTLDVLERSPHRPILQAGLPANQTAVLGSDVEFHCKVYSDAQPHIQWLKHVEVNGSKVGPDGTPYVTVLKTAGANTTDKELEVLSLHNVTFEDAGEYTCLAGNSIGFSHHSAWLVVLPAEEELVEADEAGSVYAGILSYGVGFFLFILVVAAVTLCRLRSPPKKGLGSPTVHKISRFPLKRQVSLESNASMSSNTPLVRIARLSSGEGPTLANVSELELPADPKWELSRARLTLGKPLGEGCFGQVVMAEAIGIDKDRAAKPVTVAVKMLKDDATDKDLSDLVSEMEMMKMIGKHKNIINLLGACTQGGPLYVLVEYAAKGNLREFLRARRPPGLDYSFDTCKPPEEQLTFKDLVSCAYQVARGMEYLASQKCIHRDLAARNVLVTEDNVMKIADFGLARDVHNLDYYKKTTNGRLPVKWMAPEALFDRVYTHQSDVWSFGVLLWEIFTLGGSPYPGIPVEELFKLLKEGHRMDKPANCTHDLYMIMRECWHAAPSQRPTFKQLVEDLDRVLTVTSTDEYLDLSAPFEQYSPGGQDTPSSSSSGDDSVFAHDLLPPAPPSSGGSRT

Structure (SMILES)	ΔTm [1] [c]	LogIC50 [2]	pIC50 [3]	ΔTm (Peregrin (Homo sapiens) [4]) [c]	LogIC50 [5]	LogIC50 [6]	LogIC50 [7]	LogIC50 [8]	LogIC50 [9]	ΔTm (Peregrin (Homo sapiens) [10]) [c]	LogIC50 [11]
O=C(NCCCN1CCOC1=O)c1cnc(NCc2cc(Br)ccc2Br)nc1NC1CCCC1	0	-7	7.10	0	–	–	–	–	–	–	–
CS(=O)(=O)N1CCCC(NC(=O)[C@H](CCC2CCCCC2)NC(=O)c2ccc(CNC(=O)c3cnc4ccccn34)cc2)C1 (some centres undefined)	-0.0946	–	–	-0.163	-7	-8	-7	-8	–	–	–
CN(c1ncccc1CNc1ccnc(-c2nc3c(F)c(Cl)ccc3[nH]2)n1)S(C)(=O)=O	0.31	–	–	–	–	–	–	–	-7	-1.19	-7

Source: ChEMBL document CHEMBL5058541, “EUbOPEN Chemogenomics Library 2 (NanoBRET)” (2022)
